Measurements taken from patent US10517961B2, “Drug formulation based on particulates comprising polysaccharide-vitamin conjugate” (ZY Therapeutics, Inc., priority 2015, dated 2019).

System: human non-small lung cancer cells
Experiment: In vitro cytotoxicity
Assay type: cell-based
Details: 72 hrs, cell survival ratio

CC(=O)O[C@H]1C(=O)[C@@]2(C)[C@H]([C@H](OC(=O)c3ccccc3)[C@]3(O)C[C@H](OC(=O)[C@H](O)[C@@H](NC(=O)c4ccccc4)c4ccccc4)C(C)=C1C3(C)C)[C@]1(OC(C)=O)CO[C@@H]1C[C@@H]2O [paclitaxel]
IC50: ~10 nM
